# Earlier results, collected in patent publication US20110123612A1, “PHARMACEUTICAL PREPARATION CONTAINING NON-DIHYDROPYRIDINE CALCIUM CHANNEL BLOCKER AND ANGIOTENSIN-2 RECEPTOR BLOCKER” (priority 2008, published 2011).
# Legend:
# [1] = active losartan molecule released into blood
# [2] = active form of losartan
smiles,measurement,setting,value
CCCCc1nc(Cl)c(CO)n1Cc1ccc(-c2ccccc2-c2nn[nH]n2)cc1 [losartan],time to peak blood concentration,[1],≤ 1 h
same,anti-hypertensive effects of the active form,[2],≥ 10 fold
